Test results: US20240209028A1, “CNP COMPOUNDS” (priority 2022, published 2024)
Starred links: 1 amine or outer side, 2 acyl side, 3 side chain; linkers in the order of their positions; H or OH if unused. Positions of bridges follow the written chain, without caps; N, C: chain ends. Residues, ends and D or L forms follow the SMILES beside them. *: point of attachment. C18 diacid = O=C(O)CCCCCCCCCCCCCCCCC(=O)*; γGlu = O=C(O)[C@H](CCC(=O)[*:2])N[*:1]; AEEA = NCCOCCOCC(=O)O

Assays:
[1] = molecular target: T1, human natriuretic peptide receptor 2 (hNPR2) (Homo sapiens, UniProt P20594); assay: In vitro hNPR2 activity assay (cGMP GloSensor reporter, HEK293); assay type: cell-based; conditions: for hNPR2 0% HSA. [EC50% rel CNP]: potency relative to CNP22 (0065)
T1 construct: expressed in transfected cells; host or cells: HEK293 (ATCC CRL-1573), clone 35, co-transfected with pGloSensor-42F
T1 sequence (P20594 23-1047): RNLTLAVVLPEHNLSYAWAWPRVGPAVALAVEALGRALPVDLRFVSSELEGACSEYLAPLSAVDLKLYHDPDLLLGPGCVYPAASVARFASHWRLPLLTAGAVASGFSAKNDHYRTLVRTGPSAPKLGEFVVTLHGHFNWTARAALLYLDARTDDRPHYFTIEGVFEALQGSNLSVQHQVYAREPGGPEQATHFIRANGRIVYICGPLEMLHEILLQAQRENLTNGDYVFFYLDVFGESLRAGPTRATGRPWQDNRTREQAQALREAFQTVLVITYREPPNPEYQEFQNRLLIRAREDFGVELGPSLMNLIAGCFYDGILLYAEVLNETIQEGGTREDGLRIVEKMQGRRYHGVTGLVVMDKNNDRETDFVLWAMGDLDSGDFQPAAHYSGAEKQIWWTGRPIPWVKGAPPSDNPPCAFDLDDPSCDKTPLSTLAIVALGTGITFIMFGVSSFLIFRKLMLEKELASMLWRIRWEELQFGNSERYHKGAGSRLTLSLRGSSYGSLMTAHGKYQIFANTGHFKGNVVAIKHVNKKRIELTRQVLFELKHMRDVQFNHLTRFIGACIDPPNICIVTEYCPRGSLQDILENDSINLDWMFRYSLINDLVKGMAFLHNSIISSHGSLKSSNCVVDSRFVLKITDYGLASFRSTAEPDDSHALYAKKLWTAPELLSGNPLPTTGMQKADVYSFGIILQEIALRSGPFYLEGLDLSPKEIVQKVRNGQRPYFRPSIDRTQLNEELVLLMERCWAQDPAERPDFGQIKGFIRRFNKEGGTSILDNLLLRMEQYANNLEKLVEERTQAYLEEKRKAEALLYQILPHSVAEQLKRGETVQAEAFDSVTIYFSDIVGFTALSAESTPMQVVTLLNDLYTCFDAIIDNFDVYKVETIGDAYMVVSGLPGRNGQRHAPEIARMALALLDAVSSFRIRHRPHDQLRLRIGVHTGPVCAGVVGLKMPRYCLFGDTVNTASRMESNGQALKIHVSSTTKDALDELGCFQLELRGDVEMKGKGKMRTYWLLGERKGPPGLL
Method in brief: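 Potency is the EC50 from a four-parameter logistic fit, also expressed relative to the in-plate CNP22 control (×100), with at least two replicates. Compounds (ten concentrations, […], HSA-free diluent with 1% OVA, 0.01% Tween20) were incubated 30 min at 37 °C on HEK293 cells co-expressing hNPR2 and a GloSensor cGMP luciferase. Luminescence detected with Bright-Glo.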

[2] = High-Molecular-Weight-Protein (HMWP) formation by SEC-UPLC; assay type: physicochemical; conditions: increase over two weeks at 37° C.
Method in brief: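 Formulations at pH 4.0 or 6.5 incubated quiescently for two weeks at 37 °C; HMWP (peaks eluting before monomer, % of total peptide area) measured by SEC-UPLC, pH 2.4 mobile phase with 50% isopropanol, 50 °C, UV 215 nm. Value is HMWP increase, normalized to two weeks if needed.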

Compound: CC[C@H](C)[C@@H]1NC(=O)[C@H](CCCNC(=N)N)NC(=O)[C@H](CC(=O)O)NC(=O)[C@H](CC(C)C)NC(=O)[C@@H]2CCCN2C(=O)[C@H](CC(C)C)NC(=O)CNC(=O)[C@H](Cc2ccccc2)NC(=O)[C@@H](NC(=O)CNC(=O)[C@H](CCC(N)=O)NC(=O)[C@H](CO)NC(=O)[C@H](CO)NC(=O)CNC(=O)[C@H](CCCCN)NC(=O)[C@H](CCCCN)NC(=O)[C@H](CCC(N)=O)NC(=O)[C@H](C)NC(=O)CNC(=O)[C@@H]2CCCN2C(=O)[C@H](C)NC(=O)[C@H](CCC(N)=O)NC(=O)CNC(=O)COCCOCCNC(=O)COCCOCCNC(=O)CC[C@H](NC(=O)CCCCCCCCCCCCCCCCC(=O)O)C(=O)O)CSSC[C@@H](C(=O)O)NC(=O)CNC(=O)[C@H](CC(C)C)NC(=O)CNC(=O)[C@H](CO)NC(=O)[C@H](CC(C)C)NC(=O)[C@H](CO)NC(=O)CNC1=O [compound 9384] ({C18 diacid-γGlu-AEEA-AEEA}-GQAPGAQKKGSSQGCFGLPLDRIGSLSGLGC-OH; disulfide 15-31; C-terminus assumed)
- hNPR2 0% HSA. [EC50% rel CNP] [1]: 53.7%
- 2-Week HMWP formation at pH 6.5 (%), % relative to total peak area [2]: 1.5%

Compound: CC[C@H](C)[C@@H]1NC(=O)[C@H](CCCNC(=N)N)NC(=O)[C@H](CC(=O)O)NC(=O)[C@H](CC(C)C)NC(=O)[C@@H]2CCCN2C(=O)[C@H](CC(C)C)NC(=O)CNC(=O)[C@H](Cc2ccccc2)NC(=O)[C@@H](NC(=O)CNC(=O)[C@H](CCC(N)=O)NC(=O)[C@H](CO)NC(=O)[C@H](CC(C)C)NC(=O)CNC(=O)[C@H](CCCCN)NC(=O)[C@H](CCCCN)NC(=O)[C@H](CCC(N)=O)NC(=O)[C@H](C)NC(=O)CNC(=O)[C@H](CCCCN)NC(=O)[C@H](Cc2ccc(O)cc2)NC(=O)[C@H](CCCCN)NC(=O)[C@H](CCCNC(=N)N)NC(=O)[C@H](C)NC(=O)COCCOCCNC(=O)COCCOCCNC(=O)COCCOCCNC(=O)COCCOCCNC(=O)CC[C@H](NC(=O)CC[C@H](NC(=O)CC[C@H](NC(=O)CC[C@H](NC(=O)CC[C@H](NC(=O)CCCCCCCCCCCCCCCCC(=O)O)C(=O)O)C(=O)O)C(=O)O)C(=O)O)C(=O)O)CSSC[C@@H](C(=O)O)NC(=O)CNC(=O)[C@H](CC(C)C)NC(=O)CNC(=O)[C@H](CO)NC(=O)[C@H](CC(C)C)NC(=O)[C@H](CO)NC(=O)CNC1=O [compound 9407] ({C18 diacid-γGlu-γGlu-γGlu-γGlu-γGlu-AEEA-AEEA-AEEA-AEEA}-ARKYKGAQKKGLSQGCFGLPLDRIGSLSGLGC-OH; disulfide 16-32)
- hNPR2 0% HSA. [EC50% rel CNP] [1]: 38.6%
- 2-Week HMWP formation at pH 6.5 (%), % relative to total peak area [2]: 12%

Compound: CC[C@H](C)[C@@H]1NC(=O)[C@H](CCCNC(=N)N)NC(=O)[C@H](CC(=O)O)NC(=O)[C@H](CC(C)C)NC(=O)[C@@H]2CCCN2C(=O)[C@H](CC(C)C)NC(=O)CNC(=O)[C@H](Cc2ccccc2)NC(=O)[C@@H](NC(=O)CNC(=O)[C@H](CCC(N)=O)NC(=O)[C@H](CO)NC(=O)CNC(=O)CNC(=O)[C@H](CCCCN)NC(=O)[C@H](CCCCN)NC(=O)[C@H](CCC(N)=O)NC(=O)[C@H](C)NC(=O)CNC(=O)[C@H](CCCCN)NC(=O)[C@H](Cc2ccc(O)cc2)NC(=O)COCCOCCNC(=O)COCCOCCNC(=O)COCCOCCNC(=O)COCCOCCNC(=O)CC[C@H](NC(=O)CC[C@H](NC(=O)CCCCCCCCCCCCCCCCC(=O)O)C(=O)O)C(=O)O)CSSC[C@@H](C(=O)O)NC(=O)CNC(=O)[C@H](CC(C)C)NC(=O)CNC(=O)[C@H](CO)NC(=O)[C@H](CC(C)C)NC(=O)[C@H](CO)NC(=O)CNC1=O [compound 9435] ({C18 diacid-γGlu-γGlu-AEEA-AEEA-AEEA-AEEA}-YKGAQKKGGSQGCFGLPLDRIGSLSGLGC-OH; disulfide 13-29; C-terminus assumed)
- hNPR2 0% HSA. [EC50% rel CNP] [1]: 73.6%
- 2-Week HMWP formation at pH 4.0 (%), % relative to total peak area [2]: 1.07%
- 2-Week HMWP formation at pH 6.5 (%), % relative to total peak area [2]: 1.93%

Compound: CC[C@H](C)[C@@H]1NC(=O)[C@H](CCCNC(=N)N)NC(=O)[C@H](CC(=O)O)NC(=O)[C@H](CC(C)C)NC(=O)[C@@H]2CCCN2C(=O)[C@H](CC(C)C)NC(=O)CNC(=O)[C@H](Cc2ccccc2)NC(=O)[C@@H](NC(=O)CNC(=O)[C@H](CCC(N)=O)NC(=O)[C@H](CO)NC(=O)[C@H](CC(C)C)NC(=O)CNC(=O)[C@H](CCCCN)NC(=O)[C@H](CCCCN)NC(=O)[C@H](CCC(N)=O)NC(=O)[C@H](C)NC(=O)CNC(=O)[C@H](CCCCN)NC(=O)[C@H](Cc2ccc(O)cc2)NC(=O)COCCOCCNC(=O)COCCOCCNC(=O)COCCOCCNC(=O)COCCOCCNC(=O)CC[C@H](NC(=O)CC[C@H](NC(=O)CC[C@H](NC(=O)CCCCCCCCCCCCCCCCC(=O)O)C(=O)O)C(=O)O)C(=O)O)CSSC[C@@H](C(=O)O)NC(=O)CNC(=O)[C@H](CC(C)C)NC(=O)CNC(=O)[C@H](CO)NC(=O)[C@H](CC(C)C)NC(=O)[C@H](CO)NC(=O)CNC1=O [compound 9480] ({C18 diacid-γGlu-γGlu-γGlu-AEEA-AEEA-AEEA-AEEA}-YKGAQKKGLSQGCFGLPLDRIGSLSGLGC-OH; disulfide 13-29)
- hNPR2 0% HSA. [EC50% rel CNP] [1]: 45.2%
- 2-Week HMWP formation at pH 6.5 (%), % relative to total peak area [2]: 2.65%

Compound: CC[C@H](C)[C@@H]1NC(=O)[C@H](CCCNC(=N)N)NC(=O)[C@H](CC(=O)O)NC(=O)[C@H](CC(C)C)NC(=O)[C@@H]2CCCN2C(=O)[C@H](CC(C)C)NC(=O)CNC(=O)[C@H](Cc2ccccc2)NC(=O)[C@@H](NC(=O)CNC(=O)[C@H](CO)NC(=O)[C@H](CO)NC(=O)[C@H](CC(C)C)NC(=O)CNC(=O)[C@H](CCCCN)NC(=O)[C@H](CCCCN)NC(=O)[C@H](CCC(N)=O)NC(=O)[C@H](C)NC(=O)CNC(=O)[C@H](CCCCN)NC(=O)[C@H](Cc2ccc(O)cc2)NC(=O)[C@H](CCCCN)NC(=O)[C@H](CCCNC(=N)N)NC(=O)[C@H](C)NC(=O)[C@H](CCC(N)=O)NC(=O)[C@@H]2CCCN2C(=O)[C@H](Cc2c[nH]cn2)NC(=O)[C@H](CCC(=O)O)NC(=O)[C@H](CCC(N)=O)NC(=O)CC[C@H](NC(=O)CC[C@H](NC(=O)CC[C@H](NC(=O)CC[C@H](NC(=O)CC[C@H](NC(=O)CCCCCCCCCCCCCCCCC(=O)O)C(=O)O)C(=O)O)C(=O)O)C(=O)O)C(=O)O)CSSC[C@@H](C(=O)O)NC(=O)CNC(=O)[C@H](CC(C)C)NC(=O)CNC(=O)[C@H](CO)NC(=O)[C@H](CC(C)C)NC(=O)[C@H](CO)NC(=O)CNC1=O [compound 9482] ({C18 diacid-γGlu-γGlu-γGlu-γGlu-γGlu}-QEHPQARKYKGAQKKGLSSGCFGLPLDRIGSLSGLGC-OH; disulfide 21-37)
- hNPR2 0% HSA. [EC50% rel CNP] [1]: 39.4%
- 2-Week HMWP formation at pH 6.5 (%), % relative to total peak area [2]: 1.96%

Compound: CC[C@H](C)[C@@H]1NC(=O)[C@H](CCCNC(=N)N)NC(=O)[C@H](CCC(=O)O)NC(=O)[C@H](CC(C)C)NC(=O)[C@@H]2CCCN2C(=O)[C@H](CC(C)C)NC(=O)CNC(=O)[C@H](Cc2ccccc2)NC(=O)[C@@H](NC(=O)CNC(=O)[C@H](CO)NC(=O)[C@H](CO)NC(=O)[C@H](CC(C)C)NC(=O)CNC(=O)[C@H](CCCCN)NC(=O)[C@H](CCCCN)NC(=O)[C@H](CCC(N)=O)NC(=O)[C@H](C)NC(=O)CNC(=O)[C@H](CCCCN)NC(=O)[C@H](Cc2ccc(O)cc2)NC(=O)[C@H](CCCCN)NC(=O)[C@H](CCCNC(=N)N)NC(=O)[C@H](C)NC(=O)[C@H](CCC(N)=O)NC(=O)[C@@H]2CCCN2C(=O)[C@H](Cc2c[nH]cn2)NC(=O)[C@H](CCC(=O)O)NC(=O)[C@H](CCC(N)=O)NC(=O)CC[C@H](NC(=O)CC[C@H](NC(=O)CC[C@H](NC(=O)CC[C@H](NC(=O)CCCCCCCCCCCCCCCCC(=O)O)C(=O)O)C(=O)O)C(=O)O)C(=O)O)CSSC[C@@H](C(=O)O)NC(=O)CNC(=O)[C@H](CC(C)C)NC(=O)CNC(=O)[C@H](CO)NC(=O)[C@H](CC(C)C)NC(=O)[C@H](CO)NC(=O)CNC1=O [compound 9483] ({C18 diacid-γGlu-γGlu-γGlu-γGlu}-QEHPQARKYKGAQKKGLSSGCFGLPLERIGSLSGLGC-OH; disulfide 21-37)
- EC50 ([1]; 0% HSA, HEK293-hNPR2/GloSensor cells): 0.3 nM
- hNPR2 0% HSA. [EC50% rel CNP] [1]: 10.2%
- 2-Week HMWP formation at pH 4.0 (%), % relative to total peak area [2]: 3.0%
